Here are results for one compound from patent publication US20240342117A1, “Inhalable Epinephrine Formulation” (De Motu Cordis Pty Ltd, priority 2022, published 2024).

Molecules are shown by their SMILES.

The conditions of the data set: over 4 weeks of storage.

Take `CNC[C@H](O)c1ccc(O)c(O)c1` [micronized epinephrine bitartrate, epinephrine bitartrate]: the tendency to agglomerate entry is given as “naturally tends to agglomerate”.
